The values below come from publication PMC7201284, “A complete compendium of crystal structures for the human SEPT3 subgroup reveals functional plasticity at a specific septin interface” (IUCrJ, 2020).

Holding throughout (assay): X-ray crystallography, co-crystallization
One assay deals with T1, SEPT9GC (Homo sapiens, UniProt Q9UHD8).
T1 construct: gene SEPTIN9; G domain plus C-terminal region, residues 279-568, pET-28a(+) His-tag, E. coli Rosetta (DE3); monomer about 38 kDa; purified nucleotide-free
T1 sequence (Q9UHD8 279-568): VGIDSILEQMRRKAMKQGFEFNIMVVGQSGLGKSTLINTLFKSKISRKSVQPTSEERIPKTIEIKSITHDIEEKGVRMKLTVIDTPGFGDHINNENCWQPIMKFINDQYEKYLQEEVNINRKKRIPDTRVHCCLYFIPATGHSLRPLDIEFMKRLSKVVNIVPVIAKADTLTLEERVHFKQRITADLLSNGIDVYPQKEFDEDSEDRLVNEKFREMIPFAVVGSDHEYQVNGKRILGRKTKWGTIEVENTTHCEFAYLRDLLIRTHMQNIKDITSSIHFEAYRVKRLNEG
As to conditions: about 2.0 Å; Mg2+; nucleotide-binding site at G interface.

The target of the next assay is T2, SEPT12G (Homo sapiens, UniProt Q8IYM1).
T2 construct: gene SEPTIN12; G domain, residues 47-320, pET-28a(+) His-tag, E. coli Rosetta (DE3); monomer about 32 kDa
T2 sequence (Q8IYM1 47-320): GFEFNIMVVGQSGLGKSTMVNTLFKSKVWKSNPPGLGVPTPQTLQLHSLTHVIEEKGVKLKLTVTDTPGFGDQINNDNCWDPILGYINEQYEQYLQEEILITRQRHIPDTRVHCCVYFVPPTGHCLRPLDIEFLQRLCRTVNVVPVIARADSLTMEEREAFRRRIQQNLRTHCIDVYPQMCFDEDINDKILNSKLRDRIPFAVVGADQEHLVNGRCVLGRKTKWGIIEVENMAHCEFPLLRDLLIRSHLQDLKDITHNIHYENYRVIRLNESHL
As to conditions: Mg2+, nucleotide-binding site.

The target of the next assay is T3, SEPT3α0G (Homo sapiens, UniProt Q9UH03).
T3 construct: gene SEPTIN3; G domain plus polybasic helix α0, residues 43-330; expressed and purified as in Macedo et al. 2013; monomer in solution; homotypic G-interface dimers in crystal
T3 sequence (Q9UH03 43-330): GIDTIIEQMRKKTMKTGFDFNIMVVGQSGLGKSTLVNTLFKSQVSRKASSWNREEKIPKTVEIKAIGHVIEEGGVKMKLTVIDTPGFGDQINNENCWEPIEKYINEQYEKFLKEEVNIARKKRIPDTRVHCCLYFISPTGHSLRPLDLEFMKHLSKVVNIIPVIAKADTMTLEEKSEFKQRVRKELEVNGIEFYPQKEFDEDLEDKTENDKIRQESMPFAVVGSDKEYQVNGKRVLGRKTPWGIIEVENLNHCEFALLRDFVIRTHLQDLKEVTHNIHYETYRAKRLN
The conditions noted are these: 1.83 Å; Mg2+ in active site; nucleotide-binding site at G interface.

The target in a further assay is T4, SEPT3G (Homo sapiens, UniProt Q9UH03).
T4 construct: gene SEPTIN3; G domain without helix α0, residues 59-330; expressed and purified as in Macedo et al. 2013; monomer in solution; homotypic G-interface dimers in crystal
T4 sequence (Q9UH03 59-330): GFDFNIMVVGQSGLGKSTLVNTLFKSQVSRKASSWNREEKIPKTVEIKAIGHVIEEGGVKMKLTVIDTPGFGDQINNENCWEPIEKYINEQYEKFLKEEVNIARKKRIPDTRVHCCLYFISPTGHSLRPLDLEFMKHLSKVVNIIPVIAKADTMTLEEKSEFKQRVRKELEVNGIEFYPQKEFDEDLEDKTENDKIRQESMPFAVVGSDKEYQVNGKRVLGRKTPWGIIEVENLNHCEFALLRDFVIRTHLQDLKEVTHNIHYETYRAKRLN
The conditions noted are these: 1.86 Å; Mg2+; nucleotide-binding site; b26 labels 4z51 as GTPγS but methods, Table 2 and results say GMPPNP.

Take `Nc1nc2c(ncn2[C@@H]2O[C@H](COP(=O)(O)OP(=O)(O)O)[C@@H](O)[C@H]2O)c(=O)[nH]1` [GDP]: the “X-ray crystallography, co-crystallization” value at SEPT9GC is listed as “The structure of SEPT9GC–GDP (PDB entry 5cyo) has a G-interface dimer in the asymmetric unit”; on SEPT12G (2.19 Å, small quantity of GDP also co-purified) it was “In SEPT12G–GDP (PDB entry 6mqk) the metal ion is canonically coordinated by Thr89, Ser63”; at SEPT3α0G, “structures of the G domain of SEPT3 complexed with either GDP or the GTP mimetic GMPPNP”.

Take `Nc1nc2c(ncn2[C@@H]2O[C@H](COP(=O)(O)OP(=O)(O)NP(=O)(O)O)[C@@H](O)[C@H]2O)c(=O)[nH]1` [GMPPNP]: the “X-ray crystallography, co-crystallization” value on SEPT12G (1.86 Å (P1, 6mq9) and 2.12 Å (C2221, 6mqb)) was “Two structures were obtained in the presence of GMPPNP”; at SEPT3G, “The SEPT3G–GMPPNP complex (PDB entry 4z51) has only one monomer per asymmetric unit”.
